The target in one experiment is T1, human AXL (473-end) (Homo sapiens, UniProt P30530).
T1 construct: human AXL (473-end); purchased SignalChem, Canada
T1 sequence (P30530 473-894 limits assumed): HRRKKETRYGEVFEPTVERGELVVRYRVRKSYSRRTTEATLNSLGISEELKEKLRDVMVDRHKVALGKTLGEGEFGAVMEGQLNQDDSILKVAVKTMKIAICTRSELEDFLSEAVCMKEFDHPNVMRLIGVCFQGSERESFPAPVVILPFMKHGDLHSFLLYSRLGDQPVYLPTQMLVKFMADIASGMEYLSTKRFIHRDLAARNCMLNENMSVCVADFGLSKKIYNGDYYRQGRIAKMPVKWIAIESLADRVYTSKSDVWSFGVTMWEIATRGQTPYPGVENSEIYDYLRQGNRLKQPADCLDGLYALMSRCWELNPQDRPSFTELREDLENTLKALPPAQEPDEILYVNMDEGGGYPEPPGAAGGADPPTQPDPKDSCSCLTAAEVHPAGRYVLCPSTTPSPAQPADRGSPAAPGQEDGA
The experiment can be described thus: HTRF kinase activity biochemical assay, AXL. To be noted: 10 μM ATP, 30 minutes pre-incubation.

Another experiment concerns the target T2, human MER (528-end) (Homo sapiens, UniProt Q12866).
T2 construct: human MER (528-end); purchased Camnabio, Japan
T2 sequence (Q12866 528-999 limits assumed): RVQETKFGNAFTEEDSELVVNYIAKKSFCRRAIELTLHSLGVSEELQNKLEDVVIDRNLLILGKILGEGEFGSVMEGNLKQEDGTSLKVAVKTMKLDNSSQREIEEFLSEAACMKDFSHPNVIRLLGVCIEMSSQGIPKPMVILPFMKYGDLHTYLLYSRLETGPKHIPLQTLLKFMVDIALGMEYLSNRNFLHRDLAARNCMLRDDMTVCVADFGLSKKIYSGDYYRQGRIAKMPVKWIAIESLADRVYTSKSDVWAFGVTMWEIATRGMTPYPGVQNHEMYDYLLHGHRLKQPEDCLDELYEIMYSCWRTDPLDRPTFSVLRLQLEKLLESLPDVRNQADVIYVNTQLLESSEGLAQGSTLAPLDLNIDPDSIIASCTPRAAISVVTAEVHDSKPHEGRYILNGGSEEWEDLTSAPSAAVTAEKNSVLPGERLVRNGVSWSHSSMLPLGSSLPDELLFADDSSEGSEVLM
The experiment can be described thus: HTRF kinase activity biochemical assay, MER. To be noted: 10 μM ATP, 30 minutes pre-incubation; read-out: HTRF MERTK IC50. A general note: TR-FRET usually uses a lanthanide donor and a delayed reading to cut background.

The target of a further experiment is T3, human TYRO3 (455-end) (Homo sapiens, UniProt Q06418).
T3 construct: TYRO3 (455-end); purchased SignalChem, Canada
T3 sequence (Q06418 455-890 limits assumed): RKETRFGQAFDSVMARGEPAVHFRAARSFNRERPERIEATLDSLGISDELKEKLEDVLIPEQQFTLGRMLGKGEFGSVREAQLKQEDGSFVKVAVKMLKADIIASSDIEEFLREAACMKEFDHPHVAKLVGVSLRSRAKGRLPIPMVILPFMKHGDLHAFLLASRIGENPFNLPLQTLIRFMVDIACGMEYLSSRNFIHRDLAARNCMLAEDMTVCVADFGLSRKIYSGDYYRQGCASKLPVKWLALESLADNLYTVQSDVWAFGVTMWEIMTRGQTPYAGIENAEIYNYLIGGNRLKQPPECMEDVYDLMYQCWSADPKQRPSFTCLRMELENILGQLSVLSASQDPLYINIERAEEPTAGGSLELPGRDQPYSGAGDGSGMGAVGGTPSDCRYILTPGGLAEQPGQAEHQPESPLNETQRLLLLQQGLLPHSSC
The experiment can be described thus: HTRF kinase activity biochemical assay, TYRO3. The settings on record: 10 μM ATP, 30 minutes pre-incubation; read-out: HTRF TYRO IC50.

Among the data in US20260146035A1, “FUSED BICYCLIC COMPOUNDS AND THEIR USE AS MER AND AXL INHIBITORS” (DONG-A ST CO., LTD., priority 2022, published 2026) are IC50 values, retold here.

For orientation: IC50 means the midpoint of a concentration-inhibition curve.

Molecules are shown by their SMILES.

On to `COc1c(-c2cnn(C)c2)cnc(N)c1C(=O)N[C@H]1CCC[C@@H]1OCc1ccc(-c2ccc3c(c2)CC[C@@H]3N2CCN(CCO)CC2)cc1` [Example 155, 2-amino-N-{(1S,2S)-2-[(4-{(1S)-1-[4-(2-hydroxyethyl)piperazin-1-yl]-2,3-dihydro-1H-inden-5-yl}phenyl)methoxy]cyclopentyl}-4-methoxy-5-(1-methyl-1H-pyrazol-4-yl)pyridine-3-carboxamide], for which the IC50 was less than 10 nM against human AXL (473-end), less than 10 nM at human MER (528-end) and 100 to 1000 nM at human TYRO3 (455-end).

As to `Cn1cc(-c2cnc(N)c(C(=O)N[C@H]3CCC[C@@H]3OCc3ccc(-c4ccc5c(c4)ncn5C4CCN(CCO)CC4)cc3)c2)cn1` [Example 156, 2-amino-N-{(1S,2S)-2-[(4-{1-[1-(2-hydroxyethyl)piperidin-4-yl]-1H-benzimidazol-5-yl}phenyl)methoxy]cyclopentyl}-5-(1-methyl-1H-pyrazol-4-yl)pyridine-3-carboxamide], the IC50 on human AXL (473-end) was greater than 1000 nM; on human MER (528-end), 100 to 1000 nM; at human TYRO3 (455-end) it was greater than 1000 nM.

Turning to `COc1c(-c2cnn(C)c2)cnc(N)c1C(=O)N[C@H]1CCC[C@@H]1OCc1ccc(-c2ccc3c(c2)CC[C@@H]3N2CCN(C)CC2)cc1` [Example 157, 2-amino-4-methoxy-N-[(1S,2S)-2-({4-[(1S)-1-(4-methylpiperazin-1-yl)-2,3-dihydro-1H-inden-5-yl]phenyl}methoxy)cyclopentyl]-5-(1-methyl-1H-pyrazol-4-yl)pyridine-3-carboxamide], the results for the IC50 against human AXL (473-end), at human MER (528-end) and at human TYRO3 (455-end) were less than 10 nM, less than 10 nM and 100 to 1000 nM, respectively.

With `Cn1cc(-c2cnc(N)c(C(=O)N[C@H]3CCC[C@@H]3OCc3ccc(-c4cnc5c(c4)C(C)(C)CCN5C4CCN(CCO)CC4)cc3)c2)cn1` [Example 158, 2-amino-N-{(1S,2S)-2-[(4-{8-[1-(2-hydroxyethyl)piperidin-4-yl]-5,5-dimethyl-5,6,7,8-tetrahydro-1,8-naphthyridin-3-yl}phenyl)methoxy]cyclopentyl}-5-(1-methyl-1H-pyrazol-4-yl)pyridine-3-carboxamide], the IC50 was less than 10 nM against human AXL (473-end), less than 10 nM on human MER (528-end) and 10 to 100 nM at human TYRO3 (455-end).

Take `Cn1cc(-c2cnc(N)c(C(=O)N[C@H]3CCC[C@@H]3OCc3ccc(-c4cnc5c(c4)CCCN5C4CCN(CCO)CC4)cc3)c2)cn1` [Example 162, 2-amino-N-{(1S,2S)-2-[(4-{8-[1-(2-hydroxyethyl)piperidin-4-yl]-5,6,7,8-tetrahydro-1,8-naphthyridin-3-yl}phenyl)methoxy]cyclopentyl}-5-(1-methyl-1H-pyrazol-4-yl)pyridine-3-carboxamide]: the IC50 is less than 10 nM on human AXL (473-end), less than 10 nM on human MER (528-end) and 10 to 100 nM at human TYRO3 (455-end).

As for `CN1CCN([C@H]2CCCc3cc(-c4ccc(CO[C@H]5CCC[C@@H]5NC(=O)c5cc(-c6cccnc6F)cnc5N)cc4)ccc32)CC1` [Example 163, 6-amino-2′-fluoro-N-[(1S,2S)-2-({4-[(5S)-5-(4-methylpiperazin-1-yl)-5,6,7,8-tetrahydronaphthalen-2-yl]phenyl}methoxy)cyclopentyl][3,3′-bipyridine]-5-carboxamide], the IC50 against human AXL (473-end) is less than 10 nM; at human MER (528-end) it was less than 10 nM; on human TYRO3 (455-end) it was 10 to 100 nM.

In the case of `Cn1cc(-c2cnc(N)c(C(=O)N[C@H]3CCC[C@@H]3OCc3ccc(-c4ccc5c(c4)CCC[C@H]5N4CCN(C[C@H](O)CO)CC4)cc3)c2)cn1` [Example 170, 2-amino-N-[(1S,2S)-2-({4-[(5R)-5-{4-[(2S)-2,3-dihydroxypropyl]piperazin-1-yl}-5,6,7,8-tetrahydronaphthalen-2-yl]phenyl}methoxy)cyclopentyl]-5-(1-methyl-1H-pyrazol-4-yl)pyridine-3-carboxamide], the IC50 against human AXL (473-end) is 10 to 100 nM; on human MER (528-end) it was 10 to 100 nM; on human TYRO3 (455-end), greater than 1000 nM.

Consider `Cc1ncc(-c2cnc(N)c(C(=O)N[C@H]3CCC[C@@H]3OCc3ccc(-c4ccc5c(c4)CC[C@@H]5N4CCN(CCO)CC4)cc3)c2)s1` [Example 172, 2-amino-N-{(1S,2S)-2-[(4-{(1S)-1-[4-(2-hydroxyethyl)piperazin-1-yl]-2,3-dihydro-1H-inden-5-yl}phenyl)methoxy]cyclopentyl}-5-(2-methyl-1,3-thiazol-5-yl)pyridine-3-carboxamide], for which the IC50 at human AXL (473-end) was less than 10 nM; at human MER (528-end), less than 10 nM; at human TYRO3 (455-end), 10 to 100 nM.

Consider `Nc1ncc(-c2ccns2)cc1C(=O)N[C@H]1CCC[C@@H]1OCc1ccc(-c2ccc3c(c2)CC[C@@H]3N2CCN(CCO)CC2)cc1` [Example 174, 2-amino-N-{(1S,2S)-2-[(4-{(1S)-1-[4-(2-hydroxyethyl)piperazin-1-yl]-2,3-dihydro-1H-inden-5-yl}phenyl)methoxy]cyclopentyl}-5-(1,2-thiazol-5-yl)pyridine-3-carboxamide], for which the IC50 against human AXL (473-end) was less than 10 nM; at human MER (528-end), less than 10 nM; at human TYRO3 (455-end), 10 to 100 nM.

Regarding `Cc1cc(-c2cnc(N)c(C(=O)N[C@H]3CCC[C@@H]3OCc3ccc(-c4ccc5c(c4)CC[C@@H]5N4CCN(CCO)CC4)cc3)c2)sn1` [Example 175, 2-amino-N-{(1S,2S)-2-[(4-{(1S)-1-[4-(2-hydroxyethyl)piperazin-1-yl]-2,3-dihydro-1H-inden-5-yl}phenyl)methoxy]cyclopentyl}-5-(3-methyl-1,2-thiazol-5-yl)pyridine-3-carboxamide], the IC50 at human AXL (473-end) was less than 10 nM; at human MER (528-end), less than 10 nM; at human TYRO3 (455-end), 10 to 100 nM.

Turning to `Nc1ncc(-c2cncs2)cc1C(=O)N[C@H]1CCC[C@@H]1OCc1ccc(-c2ccc3c(c2)CC[C@@H]3N2CCN(CCO)CC2)cc1` [Example 176, 2-amino-N-{(1S,2S)-2-[(4-{(1S)-1-[4-(2-hydroxyethyl)piperazin-1-yl]-2,3-dihydro-1H-inden-5-yl}phenyl)methoxy]cyclopentyl}-5-(1,3-thiazol-5-yl)pyridine-3-carboxamide], the half-maximal inhibitory concentration (IC50) is less than 10 nM against human AXL (473-end), less than 10 nM at human MER (528-end) and 10 to 100 nM at human TYRO3 (455-end).

As for `Nc1ncc(-c2ccccn2)cc1C(=O)N[C@H]1CCC[C@@H]1OCc1ccc(-c2ccc3c(c2)CC[C@@H]3N2CCN(CCO)CC2)cc1` [Example 177, 6′-amino-N-{(1S,2S)-2-[(4-{(1S)-1-[4-(2-hydroxyethyl)piperazin-1-yl]-2,3-dihydro-1H-inden-5-yl}phenyl)methoxy]cyclopentyl}[2,3′-bipyridine]-5′-carboxamide], the IC50 was less than 10 nM at human AXL (473-end), less than 10 nM at human MER (528-end) and 10 to 100 nM on human TYRO3 (455-end).

Consider `COc1cccc(-c2cnc(N)c(C(=O)N[C@H]3CCC[C@@H]3OCc3ccc(-c4ccc5c(c4)CC[C@@H]5N4CCN(CCO)CC4)cc3)c2)n1` [Example 178, 6′-amino-N-{(1S,2S)-2-[(4-{(1S)-1-[4-(2-hydroxyethyl)piperazin-1-yl]-2,3-dihydro-1H-inden-5-yl}phenyl)methoxy]cyclopentyl}-6-methoxy[2,3′-bipyridine]-5′-carboxamide], for which the IC50 against human AXL (473-end) was less than 10 nM; at human MER (528-end), less than 10 nM; at human TYRO3 (455-end) it was 10 to 100 nM.

Consider `COc1nc(-c2cnc(N)c(C(=O)N[C@H]3CCC[C@@H]3OCc3ccc(-c4ccc5c(c4)CC[C@@H]5N4CCN(CCO)CC4)cc3)c2)cs1` [Example 179, 2-amino-N-{(1S,2S)-2-[(4-{(1S)-1-[4-(2-hydroxyethyl)piperazin-1-yl]-2,3-dihydro-1H-inden-5-yl}phenyl)methoxy]cyclopentyl}-5-(2-methoxy-1,3-thiazol-4-yl)pyridine-3-carboxamide], for which the IC50 against human AXL (473-end) was less than 10 nM; at human MER (528-end) it was less than 10 nM; on human TYRO3 (455-end), 10 to 100 nM.
